Results: PMC7327383, “The affinity and selectivity of α‐adrenoceptor antagonists, antidepressants, and antipsychotics for the human α1A, α1B, and α1D‐adrenoceptors” (Pharmacology Research & Perspectives, 2020)
Read-outs that look alike come from different tables or passages of the source.

Tests used:
human α1A-adrenoceptor = target: T1, human α1A-adrenoceptor (Homo sapiens, UniProt P35348); assay: [3H]prazosin whole-cell competition binding, CHO-α1A cells; settings: for selectivity α1A vs 1D / selectivity α1A vs α1B: ratio, 1 = no selectivity for a subtype over another
T1 construct: CHO cells stably expressing either the full‐length human α1A, α1B, or α1D‐adrenoceptor
T1 sequence (P35348 1-466): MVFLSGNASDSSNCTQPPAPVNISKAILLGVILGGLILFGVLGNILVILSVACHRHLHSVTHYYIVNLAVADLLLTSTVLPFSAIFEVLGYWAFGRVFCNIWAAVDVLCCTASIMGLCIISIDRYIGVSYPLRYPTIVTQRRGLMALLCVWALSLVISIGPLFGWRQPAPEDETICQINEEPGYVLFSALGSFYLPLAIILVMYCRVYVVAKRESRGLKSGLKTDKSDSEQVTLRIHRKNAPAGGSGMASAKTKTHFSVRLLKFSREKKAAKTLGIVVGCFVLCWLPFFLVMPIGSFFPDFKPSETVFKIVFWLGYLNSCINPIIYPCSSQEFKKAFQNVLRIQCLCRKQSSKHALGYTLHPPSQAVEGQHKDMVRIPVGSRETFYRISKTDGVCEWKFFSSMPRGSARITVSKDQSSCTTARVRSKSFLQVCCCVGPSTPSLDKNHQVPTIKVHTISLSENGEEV

human α1B-adrenoceptor = target: T2, human α1B-adrenoceptor (Homo sapiens, UniProt P35368); assay: [3H]prazosin whole-cell competition binding, CHO-α1B cells; settings: for selectivity α1B vs α1D: ratio, 1 = no selectivity for a subtype over another; for Log KD α1B / Kd: single-component inhibition curve, given as log KD (negative), mean ± SE mean; for Kd: read-out: Log KD α1B (converted); for IC50: read-out: Log IC50 α1B (converted); for Log IC50 α1B: log IC50 bound
T2 construct: CHO cells stably expressing either the full‐length human α1A, α1B, or α1D‐adrenoceptor
T2 sequence (P35368 1-520): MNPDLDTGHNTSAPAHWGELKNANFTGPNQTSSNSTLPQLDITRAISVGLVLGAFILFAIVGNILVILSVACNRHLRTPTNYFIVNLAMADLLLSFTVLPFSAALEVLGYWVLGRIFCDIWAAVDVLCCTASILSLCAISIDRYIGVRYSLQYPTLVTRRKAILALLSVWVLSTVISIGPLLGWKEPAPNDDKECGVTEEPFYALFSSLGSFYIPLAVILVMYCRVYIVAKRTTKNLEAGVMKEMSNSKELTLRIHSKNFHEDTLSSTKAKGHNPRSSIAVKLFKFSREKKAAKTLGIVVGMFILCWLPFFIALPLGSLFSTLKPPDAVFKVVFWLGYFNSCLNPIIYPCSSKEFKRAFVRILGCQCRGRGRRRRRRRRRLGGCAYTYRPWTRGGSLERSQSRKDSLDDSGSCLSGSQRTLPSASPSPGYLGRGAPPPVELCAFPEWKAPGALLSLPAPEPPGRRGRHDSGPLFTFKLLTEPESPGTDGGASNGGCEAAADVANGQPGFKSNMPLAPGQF

[1] = target: T3, full-length human α1D-adrenoceptor (Homo sapiens, UniProt P25100); assay: [3H]prazosin whole-cell competition binding, CHO-α1D cells
T3 sequence (P25100 1-572): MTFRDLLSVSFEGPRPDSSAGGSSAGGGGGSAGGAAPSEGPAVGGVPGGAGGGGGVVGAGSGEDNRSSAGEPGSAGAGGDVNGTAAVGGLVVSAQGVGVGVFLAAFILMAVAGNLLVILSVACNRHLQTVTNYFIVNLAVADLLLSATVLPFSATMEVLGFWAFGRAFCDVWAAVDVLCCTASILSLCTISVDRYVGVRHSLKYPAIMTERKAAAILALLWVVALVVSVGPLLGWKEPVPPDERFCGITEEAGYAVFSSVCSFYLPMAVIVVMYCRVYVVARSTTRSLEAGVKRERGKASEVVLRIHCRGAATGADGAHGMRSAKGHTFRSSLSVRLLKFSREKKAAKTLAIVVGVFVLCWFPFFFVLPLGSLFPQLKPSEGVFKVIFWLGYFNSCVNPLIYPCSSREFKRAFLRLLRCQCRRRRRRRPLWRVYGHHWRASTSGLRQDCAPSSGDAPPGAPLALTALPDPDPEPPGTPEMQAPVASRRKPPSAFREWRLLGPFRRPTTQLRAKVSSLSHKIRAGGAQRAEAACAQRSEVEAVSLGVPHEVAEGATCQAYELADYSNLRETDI

[2] = single-component inhibition curve, given as log KD (negative), mean ± SE mean
[3] = ratio of KD values, higher α1A affinity, 1.0 under vs = none
[4] = ratio of KD values, printed under α1A = higher α1A affinity, 1.0 under vs = none
[5] = ratio of KD values, higher α1D affinity (site 1 KD)
[6] = selectivity ratio, 1 = no selectivity for a given receptor subtype over another
[7] = single-component inhibition curve, given as log KD (negative), mean ± SE mean, read-out: Log KD α1A (converted)
[8] = Log KD α1D, single-component inhibition curve, given as log KD (negative), mean ± SE mean
[9] = Log KD α1D (apparent), app: top concentration inhibited most but not all specific binding, curve extrapolated
[10] = log KD from 3H-prazosin whole cell binding, CHO cells, mean ± s.e.mean, read-out: Log KD α1A (converted)

Compound	Log KD α1A (human α1A-adrenoceptor; [2])	Selectivity ratio α1A vs α1D (human α1A-adrenoceptor; [3])	Selectivity ratio α1A vs α1B (human α1A-adrenoceptor; [4])	selectivity α1B vs α1D (human α1B-adrenoceptor)	Selectivity ratio α1B vs α1D [1, 5]	selectivity α1A vs 1D (human α1A-adrenoceptor)	selectivity α1A vs α1B (human α1A-adrenoceptor)	Kd (human α1A-adrenoceptor; [7])	Kd (human α1B-adrenoceptor)	Kd [1, 8]	other results
CN1[C@H]2C[C@H](OC(=O)[C@H](CO)c3ccccc3)C[C@@H]1[C@@H](O)C2 [Anisodamine]	−5.21 ± 0.03	–	–	–	–	–	–	–	–	–	Log KD α1B (apparent) (human α1B-adrenoceptor; app: top concentration inhibited most but not all specific binding, curve extrapolated): −3.45 ± 0.04^app; Log KD α1D [1, 2]: −4.21 ± 0.05
CC1c2ccccc2CN1CC1=NCCN1 (stereo not drawn) [BRL44408]	−5.92 ± 0.09	7.2 fold	17 fold	2.4	2.4 fold	–	–	–	–	–	Log KD α1B (human α1B-adrenoceptor): −4.68 ± 0.07; Log KD α1D [1, 2]: −5.06 ± 0.05
COc1cccc(OC)c1OCCNCC1CSc2ccccc2O1 (stereo not drawn) [Benoxathian]	−9.08 ± 0.05	–	–	–	–	–	–	–	–	–	Log KD α1B (human α1B-adrenoceptor): −7.32 ± 0.03; Log KD α1D site 1 ([1]; high-affinity component of two-component curve, control, used for selectivity): −7.91 ± 0.10; Log KD α1D site 2 ([1]; low-affinity component of two-component curve, control): −5.62 ± 0.19; % site 1 α1D ([1]; percentage of inhibition through first component, control): 62.5 ± 3.4% Site 1; % site 1 α1D ([1]; two-component inhibition curve, proportion of site 1): -7.91 ± 0.10 -5.62 ± 0.19 62.5 ± 3.4% site 1
CC(C)(Cc1c[nH]c2ccccc12)NCC(O)COc1ccccc1C#N (stereo not drawn) [Bucindolol]	–	13 fold	13 fold	1.0	1.0 fold	13.2	13	0.0269 µM	0.347 µM	0.355 µM	selectivities α1A vs α1B (human α1A-adrenoceptor; [6]): 13; selectivities α1A vs α1D (human α1A-adrenoceptor; [6]): 13; α1A affinity, fold lower than that for the human β1 adrenoceptor (human α1A-adrenoceptor; β1 affinity from ref 53): 54 fold; α1A affinity, fold lower than that for the β2 adrenoceptor (human α1A-adrenoceptor; β2 affinity from refs 52, 53): 263 fold
CC(C)(C)NCC(O)COc1cccc2[nH]c(=O)[nH]c12 (stereo not drawn) [CGP12177]	–	8.7 fold	>14 fold	–	>1.6 fold	–	–	7.24 µM	–	63.1 µM	IC50 (human α1B-adrenoceptor): > 100 µM
Cn1cc(C(F)(F)F)nc1-c1ccc(OCC(O)CNCCOc2ccc(O)c(C(N)=O)c2)cc1 (stereo not drawn) [CGP20712A]	–	–	>8.5 fold	–	>9.1 fold	–	–	11.7 µM	–	–	IC50 (human α1B-adrenoceptor): > 100 µM; Kd [1, 9]: 11 µM; Selectivity ratio α1A vs α1D [1, 5]: 1.1 fold
CC(C)(C)NCC(O)COc1cccc2[nH]c(=O)[nH]c12 (stereo not drawn) [CGP 12177]	–	–	–	>1.6	–	8.7	>14	–	–	–	Kd (human α1A-adrenoceptor; [10]): 7.24 µM; Log IC50 α1B (human α1B-adrenoceptor): Log IC50>-4; Kd ([1]; Log KD α1D, log KD from 3H-prazosin whole cell binding, CHO cells, mean ± s.e.mean): 63.1 µM
Cn1cc(C(F)(F)F)nc1-c1ccc(OCC(O)CNCCOc2ccc(O)c(C(N)=O)c2)cc1 (stereo not drawn) [CGP 20712A]	–	–	–	>9.1	–	1.1	>8.5	–	–	–	Kd (human α1A-adrenoceptor; [10]): 11.7 µM; Log IC50 α1B (human α1B-adrenoceptor): Log IC50>-4; Kd ([1]; Log KD α1D (apparent), apparent KD: maximum concentration inhibited most but not all specific binding, IC50 from extrapolated curve): 11 µM
CC(C)NCC(O)COc1cccc2[nH]c3ccccc3c12 (stereo not drawn) [Carazolol]	–	34 fold	78 fold	2.3	2.3 fold	–	–	0.269 µM	20.9 µM	–	Kd [1, 9]: 9.12 µM
CN(C)CCCN1c2ccccc2CCc2ccc(Cl)cc21 [Clomipramine]	–	–	–	–	–	–	–	–	0.457 µM	0.708 µM	Selectivity ratio α1A vs α1B (human α1A-adrenoceptor): 60 fold; Selectivity ratio α1A vs α1D (human α1A-adrenoceptor): 93 fold; Kd (human α1A-adrenoceptor; Log KD α1A, single-component inhibition curve, given as log KD (negative), mean ± SE mean): 0.00759 µM; Selectivity ratio α1B vs α1D (human α1B-adrenoceptor): 1.5 fold
